According to paper PMC4183595, “Study on the Main Components Interaction from Flos Lonicerae and Fructus Forsythiae and Their Dissolution In Vitro and Intestinal Absorption in Rats” (PLoS ONE, 2014):
Where two headings read alike, the source gives them in different places.

How the values were obtained:
[1] = Rat in vivo pharmacokinetics study after oral administration of product A, B or C; parameters: species or system Male Sprague-Dawley (SD) rats; AUC 0→t in product C group, increased to % compared to that in product A or B groups: concentration or dose not given beside the values; conditions: for AUC(0-t) / AUC(0-inf) / MRT / half-life / Tmax / Cmax: male, Sprague-Dawley, rat, plasma; for AUC(0-t) / AUC(0-inf) / MRT / half-life / Tmax: 10 mL·kg^−1; for AUC(0-t): oral product C group; for AUC(0-inf) / MRT / half-life / Tmax / Cmax: po, 10 mL·kg^−1, rats; for half-life: read-out: T 1/2z; for Cmax: mean±SD; for AUC 0→t in product C group, increased to % compared to that in product A or B groups: product C versus product A or B
Procedure: Product A (extract mixed with FLJ extract and water, (1∶1, v / v )), product B (extract mixed with FF extract and water, (1∶1, v / v )) and product C (extract mixed with FLJ and FF extracts, (1∶1, v / v )) were given to oral administration to rats, respectively.
Male SD rats (∼250 g) were kept in an environmentally controlled breeding room (temperature: 20±2°C, relative humidity: 60±5%) for 1 week. […] The rats were randomly divided into three groups with no less than six rats in each group to receive various administrations at a single oral dose (10 mL·kg^−1) by gastric gavage. […] Subsequently, plasma was prepared by centrifugation at 1,816×g, 4°C for 7 min, and immediately analyzed or stored at −70°C for further analysis.
The main pharmacokinetic parameters including the peak plasma concentration (C max), the time to C max (T max), the AUC from 0 to infinity (AUC 0–∞), the AUC form 0 to time (AUC 0–t), mean residence time (MRT), and terminal elimination half-life (T 1/2z) were calculated by the non-compartmental analysis of plasma concentration vs. time data using the “DAS 2.1.1” software (Mathematical Pharmacology Professional Committee of China, Shanghai, China).

Caco-2 cells = test: In vitro Caco-2 monolayer model, apical to basolateral transport (P app); format: in vitro ADME, human; conditions: Caco-2 monolayer; for P app in product C group, % compared to that in product A group / P app in product C group, % compared with that in product B group: HBSS pH 6.0, apical to basolateral
Procedure: Caco-2 cells were cultured in high glucose DMEM with 10% fetal bovine serum, 1% nonessential amino acids. Cells were cultured in a humidified atmosphere of 5% CO2 at 37°C. After reaching 80% confluens, Caco-2 cells were harvested with 0.05% trypsin-EDTA solution and seeded on top of CC inserts in 6-well plates, which has a surface area of 4.2 cm^2, at a density of 1.0×10^5 cells/cm^2. The protocols for cell culture in Transwell inserts were similar to those described previously.
Hank’s balanced salt solution (HBSS) was used as the transport buffer for the transport study in Caco-2 cells monolayer model. It was prepared by dissolving 9.5 grams of commercial available HBSS powder in 1000 mL water.
Cell culture experiments were described previously. Briefly, after culture medium was aspirated, the cell monolayers were washed three times with blank HBSS. […] The monolayers were incubated with the blank HBSS for 1 h with 37°C. Thereafter the incubation medium was aspirated. Afterwards, a solution containing the compound was loaded onto the apical side. The amounts of transported compound were measured as a function of time. […] The samples were taken at 0, 1, 2, 3 and 4 h after incubation. At the end of the transport experiment, integrity of the monolayer was monitored by TEER value.

P-gp, MRP2 and BCRP = tested on: P-gp, MRP2 and BCRP; parameters: method as in PMID 24035225, PMID 25442264; conditions: previous study; ref [21]–[22]; cited from earlier work
[2] = single oral dose 10 mL·kg^−1 of product A (FLJ extract and water 1:1)
[3] = single oral dose 10 mL·kg^−1 of product C (FLJ and FF extracts 1:1)
[4] = single oral dose 10 mL·kg^−1 of product B (FF extract and water 1:1)

Row | SMILES | AUC(0-t) ([1]; rats) [ng·h/mL] | AUC(0-inf) ([1]; oral product A) [ng·h/mL] | MRT ([1]; oral product A) [h] | half-life ([1]; oral product A) [h] | AUC(0-inf) ([1]; oral product C) [ng·h/mL] | MRT ([1]; oral product C) [h] | Tmax ([1]; oral product C) [h] | half-life ([1]; oral product C) [h] | Cmax [1, 2] [ng/mL] | Cmax [1, 3] [ng/mL] | AUC 0→t in product C group, increased to % compared to that in product A or B groups ([1]; rats, oral) [%] | P app in product C group, % compared to that in product A group (Caco-2 cells) [%] | efflux transporters influencing the intestinal absorption (P-gp, MRP2 and BCRP) | Tmax ([1]; oral product A) [h] | AUC(0-inf) ([1]; oral product B) [ng·h/mL] | MRT ([1]; oral product B) [h] | Tmax ([1]; oral product B) [h] | half-life ([1]; oral product B) [h] | Cmax [1, 4] [ng/mL] | other results
1 | O=C(/C=C/c1ccc(O)c(O)c1)O[C@@H]1C[C@](O)(C(=O)O)C[C@@H](OC(=O)/C=C/c2ccc(O)c(O)c2)[C@H]1O [3,5-dicaffeoylquinic acid] | 82.4 | 71.5 | 7.3 | 4.87 ± 1.29 | 89.7 | 9.63 | 0.167 | 7.33 ± 0.79 | 27.6 ± 4.73 | 30.8 ± 5.66 | 162 | 164 | influenced by P-gp, MRP2 and BCRP | – | – | – | – | – | – | –
2 | O=C(/C=C/c1ccc(O)c(O)c1)O[C@H]1[C@H](O)C[C@](O)(C(=O)O)C[C@H]1O [Cryptochlorogenic acid] | 321 | 196 | 5.55 | 1.73 ± 0.782 | 351 | 7.55 | 0.167 | 4.65 ± 0.287 | 352 ± 29.4 | 449 ± 22.8 | 235 | 133 | influenced by P-gp, MRP2 and BCRP | 0.167 | – | – | – | – | – | –
3 | O=C(/C=C/c1ccc(O)c(O)c1)O[C@@H]1C[C@](O)(C(=O)O)C[C@@H](O)[C@H]1O [Chlorogenic acid] | 1270 | 707 | 5.78 | 5.37 ± 0.733 | – | 8.28 | 0.167 | 7.68 ± 0.535 | 367 ± 169 | 661 ± 294 | 215 | 140 | influenced by P-gp, MRP2 and BCRP | 0.167 | – | – | – | – | – | –
4 | O=C(C=Cc1ccc(O)c(O)c1)OC1CC(O)(C(=O)O)CC(O)C1OC(=O)C=Cc1ccc(O)c(O)c1 (centres unmarked) [3,4-dicaffeoylquinic acid] | 24.4 | 22.9 | 7.03 | 4.92 ± 0.617 | 38.8 | 8.95 | 0.2 | 6.82 ± 2.38 | 4.79 ± 1.87 | 12.5 ± 4.07 | 318 | 137 | influenced by P-gp, MRP2 and BCRP | 0.25 | – | – | – | – | – | –
5 | O=c1c(O[C@@H]2O[C@H](CO)[C@@H](O)[C@H](O)[C@H]2O)c(-c2ccc(O)cc2)oc2cc(O)cc(O)c12 [Astragalin] | 4.17 | 4.32 | 8.15 | 7.67 ± 0.263 | 6.26 | 11.3 | 0.167 | 11.6 ± 1.72 | 0.441 ± 0.166 | 0.551 ± 0.207 | 145 | 131 | – | 0.167 | – | – | – | – | – | –
6 | C[C@@H]1O[C@@H](OC[C@H]2O[C@@H](OCCc3ccc(O)c(O)c3)[C@H](O)[C@@H](O)[C@@H]2OC(=O)/C=C/c2ccc(O)c(O)c2)[C@H](O)[C@H](O)[C@H]1O [Forsythoside A] | 420 | – | – | – | 773 | 7.53 | 0.167 | 5.98 ± 0.357 | – | 182 ± 38.6 | 230 | – | affected by P-gp and MRP2, not BCRP | – | 229 | 3.75 | 0.167 | 4.6 ± 1.04 | 102 ± 6.19 | P app in product C group, % compared with that in product B group (Caco-2 cells): 165%
7 | COc1cc(C[C@H]2C(=O)OC[C@@H]2Cc2ccc(OC)c(OC)c2)ccc1O [Arctigenin] | – | – | – | – | 3.99 | 9.4 | 0.333 | 8.9 ± 0.898 | – | 0.231 ± 0.144 | – | – | – | – | 4.44 | 9.33 | 0.333 | 10.4 ± 0.36 | 0.895 ± 0.166 | AUC 0→t in product C group compared with product A or B group ([1]; rats, oral, same dosages administrated): lower significantly; P app in product C group, % compared with that in product B group (Caco-2 cells): 110%
8 | O=C(/C=C/c1ccc(O)c(O)c1)O[C@@H]1C[C@@](O)(C(=O)O)C[C@@H](O)[C@@H]1O [Neochlorogenic acid] | 259 | 138 | 5.37 | 7.63 ± 0.637 | 404 | 6.45 | 0.167 | 8.58 ± 0.467 | 75.7 ± 30.1 | 181 ± 65 | 286 | 136 | influenced by P-gp, MRP2 and BCRP | 0.167 | – | – | – | – | – | –
9 | COc1cc(C2OCC3C(c4ccc(O[C@@H]5O[C@H](CO)[C@@H](O)[C@H](O)[C@H]5O)c(OC)c4)OCC23)ccc1O (stereo partly drawn) [Pinoresinol-β-D-glucoside] | 17.1 | – | – | – | 67.8 | 7.57 | 0.167 | 5.25 ± 0.472 | – | 32.3 ± 7.57 | 299 | – | – | – | 32 | 4.1 | 0.167 | 3.37 ± 0.21 | 11.9 ± 4.36 | P app, product C group versus product B group (Caco-2 cells): no significant difference
10 | O=c1c(-c2ccc(O)cc2)coc2cc(O[C@@H]3O[C@H](CO)[C@@H](O)[C@H](O)[C@H]3O)cc(O)c12 [Genistin] | 0.548 | 0.63 | – | 8.03 ± 0.305 | 0.822 | – | 0.333 | 9.2 ± 0.455 | 0.055 ± 0.0154 | 0.0753 ± 0.0285 | 131 | 165 | – | 0.267 | – | – | – | – | – | –
